# In ChEMBL document CHEMBL4414648, “Novel Benzohydroxamate-Based Potent and Selective Histone Deacetylase 6 (HDAC6) Inhibitors Bearing a Pentaheterocyclic Scaffold: Design, Synthesis, and Biological Evaluation” (J Med Chem, 2019):
# Assays:
# [1] = molecular target: Histone deacetylase 3/Nuclear receptor corepressor 2 (HDAC3/NCoR2) (Homo sapiens, UniProt O15379); assay: Inhibition of C-terminal His-tagged human HDAC3 (1 to 428 residues)/N-terminal GST tagged human NCOR2 (395 to 489) expressed in baculovirus infected sf9 insect cells pretreated with compound followed by Fluor de Lys deacetylase substrate addition by fluorescence method
# Histone deacetylase 3/Nuclear receptor corepressor 2 (HDAC3/NCoR2), sequence (O15379 whole entry, the tested form may be a part): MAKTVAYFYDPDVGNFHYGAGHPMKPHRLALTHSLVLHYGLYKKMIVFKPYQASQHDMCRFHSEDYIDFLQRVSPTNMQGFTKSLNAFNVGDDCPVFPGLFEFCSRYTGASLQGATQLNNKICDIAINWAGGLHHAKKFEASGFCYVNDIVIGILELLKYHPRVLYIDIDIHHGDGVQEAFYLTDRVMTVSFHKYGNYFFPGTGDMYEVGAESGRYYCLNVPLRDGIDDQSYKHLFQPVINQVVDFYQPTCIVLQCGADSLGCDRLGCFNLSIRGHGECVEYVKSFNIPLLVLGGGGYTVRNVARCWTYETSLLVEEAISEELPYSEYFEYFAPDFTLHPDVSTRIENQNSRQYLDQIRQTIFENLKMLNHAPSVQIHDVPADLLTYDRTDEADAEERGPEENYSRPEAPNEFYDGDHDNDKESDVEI
# Histone deacetylase 3/Nuclear receptor corepressor 2 (HDAC3/NCoR2), sequence (Q9Y618 whole entry, further chain, the tested form may be a part): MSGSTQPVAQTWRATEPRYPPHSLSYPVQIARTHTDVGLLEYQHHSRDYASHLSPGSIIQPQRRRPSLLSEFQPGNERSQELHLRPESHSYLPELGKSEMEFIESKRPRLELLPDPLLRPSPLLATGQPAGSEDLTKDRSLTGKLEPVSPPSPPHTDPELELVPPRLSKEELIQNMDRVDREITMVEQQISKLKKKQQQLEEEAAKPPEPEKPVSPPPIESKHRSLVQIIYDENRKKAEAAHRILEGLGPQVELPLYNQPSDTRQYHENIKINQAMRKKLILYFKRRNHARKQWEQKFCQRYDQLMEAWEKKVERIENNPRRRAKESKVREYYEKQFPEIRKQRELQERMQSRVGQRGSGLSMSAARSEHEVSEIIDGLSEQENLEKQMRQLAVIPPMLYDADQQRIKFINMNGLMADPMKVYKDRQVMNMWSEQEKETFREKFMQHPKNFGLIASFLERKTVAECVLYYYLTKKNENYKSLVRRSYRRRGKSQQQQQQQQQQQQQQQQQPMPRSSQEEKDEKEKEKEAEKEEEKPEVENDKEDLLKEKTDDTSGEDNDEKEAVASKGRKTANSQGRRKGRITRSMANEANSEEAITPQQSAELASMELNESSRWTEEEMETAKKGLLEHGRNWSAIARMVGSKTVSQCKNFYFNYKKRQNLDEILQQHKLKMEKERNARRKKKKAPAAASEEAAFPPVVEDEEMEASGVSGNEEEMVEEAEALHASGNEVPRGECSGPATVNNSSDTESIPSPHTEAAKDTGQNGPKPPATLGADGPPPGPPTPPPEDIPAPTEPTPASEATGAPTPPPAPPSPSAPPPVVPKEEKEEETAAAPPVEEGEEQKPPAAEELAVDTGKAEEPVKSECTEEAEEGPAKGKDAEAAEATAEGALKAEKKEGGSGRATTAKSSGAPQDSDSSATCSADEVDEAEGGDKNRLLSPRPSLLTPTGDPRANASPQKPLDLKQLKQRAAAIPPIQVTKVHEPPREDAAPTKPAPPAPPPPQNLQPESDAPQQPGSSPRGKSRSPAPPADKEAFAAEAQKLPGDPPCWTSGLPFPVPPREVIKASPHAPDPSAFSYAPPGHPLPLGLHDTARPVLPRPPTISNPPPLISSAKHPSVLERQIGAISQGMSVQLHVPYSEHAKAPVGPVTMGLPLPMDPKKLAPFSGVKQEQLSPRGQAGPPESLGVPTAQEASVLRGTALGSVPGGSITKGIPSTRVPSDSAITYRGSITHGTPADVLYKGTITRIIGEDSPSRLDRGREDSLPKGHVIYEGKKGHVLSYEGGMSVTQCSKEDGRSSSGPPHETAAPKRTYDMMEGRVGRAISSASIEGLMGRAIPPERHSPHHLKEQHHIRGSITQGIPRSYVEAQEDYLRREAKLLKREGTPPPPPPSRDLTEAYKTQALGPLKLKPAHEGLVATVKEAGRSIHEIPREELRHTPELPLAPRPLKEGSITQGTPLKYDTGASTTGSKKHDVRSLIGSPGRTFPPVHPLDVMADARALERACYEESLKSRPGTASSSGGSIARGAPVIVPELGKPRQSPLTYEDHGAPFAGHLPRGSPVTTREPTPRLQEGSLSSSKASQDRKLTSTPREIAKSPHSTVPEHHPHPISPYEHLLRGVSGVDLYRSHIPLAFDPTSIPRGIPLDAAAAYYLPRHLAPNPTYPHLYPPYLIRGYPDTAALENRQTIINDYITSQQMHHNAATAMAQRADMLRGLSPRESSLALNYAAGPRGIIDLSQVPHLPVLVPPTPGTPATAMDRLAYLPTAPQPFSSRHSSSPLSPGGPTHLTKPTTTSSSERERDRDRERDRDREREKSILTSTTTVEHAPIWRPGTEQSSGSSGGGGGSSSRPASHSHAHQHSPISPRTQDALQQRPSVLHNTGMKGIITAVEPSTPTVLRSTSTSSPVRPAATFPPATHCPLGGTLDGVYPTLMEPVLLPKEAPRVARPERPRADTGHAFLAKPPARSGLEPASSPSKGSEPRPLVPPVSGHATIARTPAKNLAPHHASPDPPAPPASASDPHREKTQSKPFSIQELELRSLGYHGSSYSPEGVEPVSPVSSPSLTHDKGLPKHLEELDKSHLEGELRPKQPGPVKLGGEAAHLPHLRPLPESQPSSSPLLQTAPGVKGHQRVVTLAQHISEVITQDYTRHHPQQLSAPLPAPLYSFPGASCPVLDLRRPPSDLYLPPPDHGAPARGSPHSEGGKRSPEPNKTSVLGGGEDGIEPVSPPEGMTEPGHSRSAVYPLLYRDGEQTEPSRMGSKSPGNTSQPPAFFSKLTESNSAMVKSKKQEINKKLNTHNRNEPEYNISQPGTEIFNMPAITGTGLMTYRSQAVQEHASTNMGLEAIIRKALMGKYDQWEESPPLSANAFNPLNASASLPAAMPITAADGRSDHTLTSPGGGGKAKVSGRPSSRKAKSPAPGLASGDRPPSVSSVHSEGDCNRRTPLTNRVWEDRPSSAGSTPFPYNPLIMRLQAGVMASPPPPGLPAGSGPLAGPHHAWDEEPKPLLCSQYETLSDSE
# [2] = molecular target: T1, Protein deacetylase HDAC6 (Homo sapiens, UniProt Q9UBN7); assay: biochemical
# T1 sequence (Q9UBN7 whole entry): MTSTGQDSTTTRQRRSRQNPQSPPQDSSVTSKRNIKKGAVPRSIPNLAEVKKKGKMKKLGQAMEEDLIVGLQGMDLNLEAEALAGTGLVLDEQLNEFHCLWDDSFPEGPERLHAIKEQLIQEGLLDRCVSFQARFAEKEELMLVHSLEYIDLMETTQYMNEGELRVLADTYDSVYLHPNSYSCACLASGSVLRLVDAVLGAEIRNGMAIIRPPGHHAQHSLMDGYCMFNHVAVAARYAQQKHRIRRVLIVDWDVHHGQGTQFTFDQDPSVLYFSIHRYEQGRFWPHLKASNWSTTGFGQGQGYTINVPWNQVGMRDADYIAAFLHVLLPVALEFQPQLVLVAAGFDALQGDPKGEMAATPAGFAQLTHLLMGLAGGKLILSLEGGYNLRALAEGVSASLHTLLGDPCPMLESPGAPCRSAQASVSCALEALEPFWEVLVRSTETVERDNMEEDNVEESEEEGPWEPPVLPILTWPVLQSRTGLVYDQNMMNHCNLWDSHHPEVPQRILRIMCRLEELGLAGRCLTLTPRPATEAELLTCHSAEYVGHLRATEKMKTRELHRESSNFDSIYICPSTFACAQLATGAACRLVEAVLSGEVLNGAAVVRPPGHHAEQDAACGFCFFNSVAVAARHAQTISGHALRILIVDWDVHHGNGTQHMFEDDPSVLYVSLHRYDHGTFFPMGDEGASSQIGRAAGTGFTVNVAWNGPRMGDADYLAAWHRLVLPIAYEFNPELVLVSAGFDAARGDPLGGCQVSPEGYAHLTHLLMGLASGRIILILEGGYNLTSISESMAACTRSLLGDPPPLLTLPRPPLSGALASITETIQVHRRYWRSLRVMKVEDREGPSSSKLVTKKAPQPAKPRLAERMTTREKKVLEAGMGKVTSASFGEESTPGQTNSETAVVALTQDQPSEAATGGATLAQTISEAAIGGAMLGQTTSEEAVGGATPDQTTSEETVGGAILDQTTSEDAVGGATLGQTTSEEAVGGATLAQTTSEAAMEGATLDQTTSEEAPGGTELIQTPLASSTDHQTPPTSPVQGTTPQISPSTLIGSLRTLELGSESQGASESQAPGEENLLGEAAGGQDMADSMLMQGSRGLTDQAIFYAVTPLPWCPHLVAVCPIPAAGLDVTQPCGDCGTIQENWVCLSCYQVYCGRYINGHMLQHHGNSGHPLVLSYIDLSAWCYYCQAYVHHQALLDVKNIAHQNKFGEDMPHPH
# Histone deacetylase = assay: Inhibition of HDAC in human 697 cells assessed as increase in H3 acetylation at 1000 nM incubated for 16 hrs by ELISA; format: cell-based; conditions: human, 697, 16 h, 1 µM
# [3] = Selectivity ratio of IC50 for C-terminal GST-tagged human HDAC5 to IC50 for human N-terminal GST-tagged HDAC6 expressed in baculovirus infected sf9 insect cells
# [4] = Selectivity ratio of IC50 for N-terminal GST-tagged human HDAC7 (518 to end residues) expressed in baculovirus infected sf9 insect cells to IC50 for human N-terminal GST-tagged HDAC6 expressed in baculovirus infected sf9 insect cells
# [5] = Selectivity ratio of IC50 for C-terminal His-tagged human HDAC8 expressed in baculovirus infected sf9 insect cells to IC50 for human N-terminal GST-tagged HDAC6 expressed in baculovirus infected sf9 insect cells
# [6] = Selectivity ratio of IC50 for human HDAC4 expressed in baculovirus infected sf9 insect cells to IC50 for human N-terminal GST-tagged HDAC6 expressed in baculovirus infected sf9 insect cells
# [7] = Stability in human liver S9 fraction assessed as parent compound remaining at 5 uM after 90 mins in presence of NADPH by LC-MS/MS analysis; format: ADME, subcellular; conditions: read-out: Stability
# [8] = Stability in rat plasma assessed as parent compound remaining at 100 uM after 4 hrs by LC-MS/MS analysis; format: ADME, cell-free; conditions: read-out: Stability
# [9] = Stability in human plasma assessed as parent compound remaining at 100 uM after 4 hrs by LC-MS/MS analysis; format: ADME, cell-free; conditions: read-out: Stability
# [10] = Stability in rat liver S9 fraction assessed as parent compound remaining at 5 uM after 90 mins in presence of NADPH by LC-MS/MS analysis; format: ADME, subcellular; conditions: read-out: Stability
# [11] = Selectivity ratio of IC50 for C-terminal His-tagged human HDAC9 (604 to 1066 residues) expressed in baculovirus infected sf9 insect cells to IC50 for human N-terminal GST-tagged HDAC6 expressed in baculovirus infected sf9 insect cells
# [12] = Selectivity ratio of IC50 for N-terminal Flag-tagged human HDAC10 (2 to 631 residues) expressed in baculovirus infected sf9 insect cells to IC50 for human N-terminal GST-tagged HDAC6 expressed in baculovirus infected sf9 insect cells
# [13] = Selectivity ratio of IC50 for N-terminal His-tagged human HDAC11 expressed in baculovirus expression system to IC50 for human N-terminal GST-tagged HDAC6 expressed in baculovirus infected sf9 insect cells
# 697 = assay: Cytotoxicity against human 697 cells after 48 hrs by CellTiter 96 aqueous one solution assay; format: cell-based; conditions: Homo sapiens, 697, 48 h
# PBMC = assay: Cytotoxicity against human PBMC cells after 72 hrs by CellTiter 96 aqueous one solution assay; format: cell-based
IC50 [1],IC50 [2],inhibition (INH) (Histone deacetylase),"remaining at […], 5 µM [7]","remaining at 4 h, 100 µM [8]","remaining at 4 h, 100 µM [9]","remaining at […], 5 µM [10]",Compound,Ratio IC50 [3],Ratio IC50 [4],Ratio IC50 [5],Ratio IC50 [6],Ratio IC50 [11],Ratio IC50 [12],Ratio IC50 [13],IC50 697,IC50 (PBMC)
1670 nM,270 nM,–,–,–,–,–,CC(=O)Nc1ccc(C(=O)NO)cc1,–,–,–,–,–,–,–,–,–
–,10 nM,Active,78%,85%,91%,55%,Cn1c(Sc2c(F)cc(C(=O)NO)cc2F)nnc1-c1cccc(CN2CCCCCC2)c1,82,79,41,86,23,310,169,> 1000 nM,> 1000 nM
71600 nM,2370 nM,–,–,–,–,–,O=C(NO)c1ccccc1 [BENZOHYDROXAMATE],–,–,–,–,–,–,–,–,–
3560 nM,353 nM,–,–,–,–,–,Cc1nnc(-c2ccc(C(=O)NO)cc2)[nH]1,–,–,–,–,–,–,–,–,–
–,6 nM,Active,76%,80%,92%,30%,Cc1cc(-c2nnc(Sc3c(F)cc(C(=O)NO)cc3F)n2C)nn1C,42,48,19,48,24,497,294,> 1000 nM,> 1000 nM
